The target in one assay is G-actin (Oryctolagus cuniculus, UniProt P68135). The assay is described as follows: Steady-state anisotropy of Alexa488NHS-labeled G-actin with PACAP. The format is binding, rabbit. To be noted: 0.2 µM A488NHS-labeled G-actin; PACAP 0 to 5 µM; 50 mM KCl, 1 mM MgCl2, 4 μM LatA, 1 mM EGTA, G-buffer pH 7.8; 20 °C; ex 488 nm; mean ± SD, at least three independent experiments; read-out: dissociation equilibrium constant (KD), in Figure 3. The method, then:
Actin was prepared from acetone-dried muscle powder from rabbit skeletal muscle according to the method of Spudich and Watt modified by Mossakowska et al.. Shortly, the acetone-dried powder was extracted in G-buffer (4 mM TRIS (Sigma-Aldrich, Saint Louis, MO, USA), 0.1 mM CaCl2 (Sigma-Aldrich, Saint Louis, MO, USA), 0.2 mM ATP (VWR International LLC, Radnor, PA, USA), 0.5 mM DTT (VWR International LLC, Radnor, PA, USA), pH 7.8), mixed on ice with a magnetic stirrer (30 min, 80 rpm). The mixture was filtered through quadruple-layered gauze, supplemented with additional G-buffer, mixed further (40 min, 80 rpm), filtered again, and centrifuged (30,000 rpm, 4 °C, 30 min). […] After clarification centrifugation (80,000 rpm, 30 min, 4 °C), the supernatant was removed and actin absorbance was measured using a spectrophotometer to determine its concentration. […]
For our investigation, we utilized A488NHS green-fluorescent dye, which remains stable between pH 4 and 10, with peak emission when excited at 488 nm. […] In vitro anisotropy and fluorescence emission measurements involved 0.2 µM Alexa488NHS-Mg^2+-ATP-G-actin (Alexa488NHS labeled G-actin) with varying PACAP concentrations. […] The cuvette (Hellma® fluorescence, ultra Micro, Suprasil® quartz, spectral range 200–2500 nm) had optical path lengths of ex = 10 mm/em = 2 mm. […]

Assay [1] has as its system Ca^2+-G actin and Ca^2+-F actin. The conditions noted are these: DSC; ref [81],[82]; cited from earlier work. An excerpt:
In previous investigations, we employed differential scanning calorimetry (DSC) to explore the impact of various PACAP fragments on the thermal stability of Ca^2+-G actin and Ca^2+-F actin.
Background: Differential scanning calorimetry records heat flow against a reference as temperature is scanned.

The next assay concerns Ca^2+-F-actin. More on the design: method as in doi:10.1007/s10973-024-13286-2, doi:10.1007/s10973-024-13289-z. The conditions noted are these: DSC; ref [81],[82]; cited from earlier work.
The subject of the next assay is caspase-3. The conditions noted are these: ref [1],[79]; cited from earlier work. An excerpt:
(§1) As mentioned above, PACAP plays a significant role in mitigating neuronal damage and promoting cell survival. […] The misfolding and aggregation of proteins such as Tau are hallmarks of neurodegenerative diseases like Alzheimer’s.

The next assay deals with Tau. To be noted: ref [1],[79]; cited from earlier work.
Text: as §1

Assay [2] has as its system streptozotocin-induced diabetes model. Further details: method as in PMID 34639032. The conditions noted are these: ref [76]; cited from earlier work.
Assay [3] concerns adenylate cyclase, rat pituitary cells. The conditions noted are these: versus VIP, ref [2]; cited from earlier work. An excerpt:
Pituitary adenylate cyclase-activating polypeptide (PACAP) was first isolated from the sheep hypothalamus in 1989 [1, 2]. It belongs to the vasoactive intestinal peptide (VIP)/glucagon/secretin peptide family, sharing 68% structural homology with VIP, but stimulating adenylate cyclase activity 1000 times more effectively in rat pituitary cells. PACAP plays crucial roles in the nervous and endocrine systems, acting as a hormone, neurotransmitter, vasodilator, and neuromodulator, and potentially having neurotrophic or neuroprotective functions. PACAP exists in two biologically ...

For a further assay, the system named is astrocyte. To be noted: by increasing cAMP levels; ref [57]; cited from earlier work. An excerpt:
The polymerization of G-actin into filamentous actin (F-actin) is essential for maintaining cellular structural integrity and supporting dynamic processes. Actin filaments, which form the cell’s cytoskeleton, provide mechanical strength and stability. The F-actin network supports various cellular functions, including cell migration, division, and intracellular transport, by continuously polymerizing and depolymerizing. The dynamic nature of F-actin allows cells to adapt to environmental changes and respond to signals, interacting with regulatory proteins to influence membrane protr ...
In general terms: Cyclic AMP is a second messenger, typically raised through Gs and lowered through Gi signalling.

The test system of assay [4] is traumatic brain injury (TBI). The conditions noted are these: intracerebroventricular (icv); brain regions such as corticospinal tract and medial longitudinal fasciculus; ref [45],[46]; cited from earlier work. An excerpt: (§2) PACAP synergizes with multiple factors to promote neurite growth in different cell lines. It works with nerve growth factor (NGF) and VIP to stimulate neuritogenesis, increasing neurite length and branching, similar to brain-derived neurotrophic factor (BDNF). […] In traumatic central nervous system (CNS) injuries, PACAP has cytoprotective and antiapoptotic effects. It increases dihydropyrimidinase li ...

The test system of assay [5] is neurite growth in different cell lines. To be noted: ref [40],[41],[42]; cited from earlier work.
Text: as §2

Assay [6] has as its system dihydropyrimidinase like 2 (DPYL2). The conditions noted are these: ischemic brain tissue; ref [43],[44]; cited from earlier work.
Text: as §2

In the next assay the test system is PAC1 receptor. The conditions noted are these: ref [7],[8]; cited from earlier work. An excerpt: PACAP can bind to VPAC1 (VIP receptor type 1) and VPAC2 (VIP receptor […]) receptors, which also bind VIP, due to their structural similarity. […] The high specificity of PAC1 receptors for PACAP makes them ideal for studying PACAP–receptor interactions. PAC1 receptors, being GS protein-coupled receptors (GPCRs ...

Ends that are not written are not given here.

As for `CSCC[C@H](NC(=O)[C@H](CCC(N)=O)NC(=O)[C@H](CCCCN)NC(=O)[C@H](CCCNC(=N)N)NC(=O)[C@H](Cc1ccc(O)cc1)NC(=O)[C@H](CCCNC(=N)N)NC(=O)[C@H](CO)NC(=O)[C@H](Cc1ccc(O)cc1)NC(=O)[C@H](CO)NC(=O)[C@H](CC(=O)O)NC(=O)[C@@H](NC(=O)[C@@H](N)Cc1ccccc1)[C@@H](C)O)C(=O)N[C@@H](C)C(=O)N[C@H](C(=O)N[C@@H](CCCCN)C(=O)N[C@@H](CCCCN)C(=O)N[C@@H](Cc1ccc(O)cc1)C(=O)N[C@@H](CC(C)C)C(=O)N[C@@H](C)C(=O)N[C@@H](C)C(=O)N[C@H](C(=O)N[C@@H](CC(C)C)C(=O)NCC(=O)N[C@@H](CCCCN)C(=O)N[C@@H](CCCNC(=N)N)C(=O)N[C@@H](Cc1ccc(O)cc1)C(=O)N[C@@H](CCCCN)C(=O)N[C@@H](CCC(N)=O)C(=O)N[C@@H](CCCNC(=N)N)C(=O)N[C@H](C(=O)N[C@@H](CCCCN)C(=O)N[C@@H](CC(N)=O)C(=O)N[C@@H](CCCCN)C(N)=O)C(C)C)C(C)C)C(C)C` [PACAP6-38], the dissociation constant (Kd) at G-actin came out at 150.46 ± 0.03 nM.

Regarding `CC[C@H](C)[C@H](NC(=O)CNC(=O)[C@H](CC(=O)O)NC(=O)[C@H](CO)NC(=O)[C@@H](N)Cc1cnc[nH]1)C(=O)N[C@@H](Cc1ccccc1)C(=O)N[C@H](C(=O)N[C@@H](CC(=O)O)C(=O)N[C@@H](CO)C(=O)N[C@@H](Cc1ccc(O)cc1)C(=O)N[C@@H](CO)C(=O)N[C@@H](CCCNC(=N)N)C(=O)N[C@@H](Cc1ccc(O)cc1)C(=O)N[C@@H](CCCNC(=N)N)C(=O)N[C@@H](CCCCN)C(=O)N[C@@H](CCC(N)=O)C(=O)N[C@@H](CCSC)C(=O)N[C@@H](C)C(=O)N[C@H](C(=O)N[C@@H](CCCCN)C(=O)N[C@@H](CCCCN)C(=O)N[C@@H](Cc1ccc(O)cc1)C(=O)N[C@@H](CC(C)C)C(=O)N[C@@H](C)C(=O)N[C@@H](C)C(=O)N[C@H](C(=O)N[C@@H](CC(C)C)C(=O)NCC(=O)N[C@@H](CCCCN)C(=O)N[C@@H](CCCNC(=N)N)C(=O)N[C@@H](Cc1ccc(O)cc1)C(=O)N[C@@H](CCCCN)C(=O)N[C@@H](CCC(N)=O)C(=O)N[C@@H](CCCNC(=N)N)C(=O)N[C@H](C(=O)N[C@@H](CCCCN)C(=O)N[C@@H](CC(N)=O)C(=O)N[C@@H](CCCCN)C(N)=O)C(C)C)C(C)C)C(C)C)[C@@H](C)O` [PACAP38, Pituitary adenylate cyclase-activating polypeptide 38], on G-actin, the Kd is 97.22 ± 0.01 nM.

For “PACAP6-27: PACAP fragment examined by DSC in earlier studies (FTDSYSRYRKQMAVKKYLAAVL; ends and bridges not checked; UniProt P18509 137-158, looked up, fragment)”, the “effect on thermal properties of actin (in words)” value in assay [1] is on record as “altered the thermal stability of actin, albeit to a lesser degree”. The “denaturation temperature of Ca2+-F-actin compared with control (in words)” value in the assay on Ca^2+-F-actin is on record as “did not show significant changes”.

For “Pituitary adenylate cyclase-activating polypeptide [PACAP]”, the “effect on caspase-3 activity (in words)” value in the assay on caspase-3 is “inhibits caspase-3 activity”. In the assay with Tau, the “effect on Tau phosphorylation (in words)” value is “enhances Tau phosphorylation and prevents its dephosphorylation”. In addition, the “effect on morphological signs of nerve injury and hyperalgesia (in words)” value in assay [2] is “reduced morphological signs of nerve injury (axon–myelin separation, elevated mitochondrial number in myelinated axons, unmyelinated fiber atrophy, and basement membrane thickening of endoneurial vessels) while also attenuating pressure and touch hyperalgesia”. For the same compound, in assay [3], the “stimulation of adenylate cyclase activity relative to VIP” value was 1000 times. Also, the “effect on actomyosin stress fibers (in words)” value in the assay with astrocyte is reported as “promotes actomyosin stress fiber depolymerization”. The “effect on axonal swellings and amyloid plaque accumulation (in words)” value in assay [4] is “reduces axonal swellings and amyloid plaque accumulation”. Also, in [5], the “effect on axon growth / neurite growth (in words)” value is “enhances axon length and cell body size but does not affect dendrite length”. In addition, the “effect on DPYL2 protein levels (in words)” value in [6] is “increases dihydropyrimidinase like 2 (DPYL2) protein levels in ischemic brain tissue”.

For vasoactive intestinal peptide [VIP], the “binding to PAC1 receptor (in words)” value in the assay with PAC1 receptor was “low affinity”.

Usually Kd stands for the concentration at which binding is half-saturated.

The values are drawn from PMC11311697, “Exploring the Role of Neuropeptide PACAP in Cytoskeletal Function Using Spectroscopic Methods” (International Journal of Molecular Sciences, 2024).
